According to the supplement of paper PMC11061612:

How the values were obtained:
[1] = tested on: HPAF-II (Pancreatic Carcinoma); assay: combination Emax (second highest fraction inhibited in the dose matrix, 72 h); higher = more inhibition; extreme values may be limits of the assay
Outline: (§1)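 Cell lines grown in DMEM/F12 or RPMI with 10% FBS were plated in 1536-well plates and held 24 hours at 37°C, 5% CO2 before 72 hours of exposure to two-drug dose matrices, with DMSO typically at 0.2%. CellTiter-Glo 2.0 luminescence gave viability, which was converted to inhibition. Vehicle wells were set to 0 and blank wells to 1. Combination Emax is the second-highest inhibition in the matrix, and Bliss excess is the observed combination effect minus the expected EA + EB − EA·EB, where EA and EB are the single-agent effects.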

[2] = tested on: HPAF-II (Pancreatic Carcinoma); assay: Bliss excess, mean over the matrix (fraction); higher = more synergy
Outline: as §1

GAK (Melanoma) = assay: as above
Outline: as §1

[3] = tested on: RCC-JW (Kidney Carcinoma); assay: as above
Outline: as §1

[4] = tested on: C-33-A (Cervical Carcinoma); assay: as above
Outline: as §1

[5] = tested on: COR-L88 (Small Cell Lung Carcinoma); assay: as above
Outline: as §1

[6] = tested on: NAMALWA (Burkitt's Lymphoma); assay: as above
Outline: as §1

KALS-1 (Glioblastoma) = assay: as above
Outline: as §1

UACC-257 (Melanoma) = assay: as above
Outline: as §1

[7] = tested on: MS-1 (Small Cell Lung Carcinoma); assay: as above
Outline: as §1

[8] = tested on: KP-4 (Pancreatic Carcinoma); assay: as above
Outline: as §1

[9] = tested on: SKG-IIIa (Cervical Carcinoma); assay: as above
Outline: as §1

[10] = tested on: HT-1080 (Other Solid Carcinomas); assay: as above
Outline: as §1

[11] = tested on: MOLP-8 (Plasma Cell Myeloma); assay: as above
Outline: as §1

ES6 (Ewing's Sarcoma) = assay: as above
Outline: as §1

[12] = tested on: P30-OHK (B-Lymphoblastic Leukemia); assay: as above
Outline: as §1
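Wherever Bliss excess, mean over the matrix is given: after 72 h of two-drug dosing.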

SMILES	combination Emax [1]	Bliss excess [2]	Bliss excess (GAK (Melanoma))	Bliss excess [3]	Bliss excess [4]	Bliss excess [5]	Bliss excess [6]	Bliss excess (KALS-1 (Glioblastoma))	Bliss excess (UACC-257 (Melanoma))	Bliss excess [7]	Bliss excess [8]	Bliss excess [9]	Bliss excess [10]	Bliss excess [11]	Bliss excess (ES6 (Ewing's Sarcoma))	Bliss excess [12]
CN(C)CCCOc1ccc(-c2ccc3ncc4c(c3c2)n(C2CCOCC2)c(=O)n4C)cn1 [AZD0156] + O=C(c1cc(Cc2n[nH]c(=O)c3ccccc23)ccc1F)N1CCN(C(=O)C2CC2)CC1 [Olaparib] (first compound max 3 µM, partner max 3 µM)	0.25	-0.0048	0.0131	0.0299	0.0868	-0.193	0.117	-0.0235	-0.0055	0.142	0.0711	-0.0324	-0.0054	0.0151	-0.005	0.262
C=CCn1c(=O)c2cnc(Nc3ccc(N4CCN(C)CC4)cc3)nc2n1-c1cccc(C(C)(C)O)n1 [AZD1775] + C1CN(CCC1(C(=O)N[C@@H](CCO)C2=CC=C(C=C2)Cl)N)C3=NC=NC4=C3C=CN4 [Capivasertib] (first compound max 3 µM, partner max 3 µM)	0.605	-0.096	-0.0395	-0.0527	-0.0323	-0.0949	0.0603	-0.0806	-0.0383	0.0208	-0.0806	-0.0139	-0.0086	0.0286		0.0697
COc1nnc2ccc(N3CCC(c4ccc(OCCN5CCN(C)C(=O)[C@H]5C)cc4)CC3)nn12 [AZD5153] + C=CCn1c(=O)c2cnc(Nc3ccc(N4CCN(C)CC4)cc3)nc2n1-c1cccc(C(C)(C)O)n1 [AZD1775] (first compound max 1 µM, partner max 1 µM)	0.449	-0.0147	-0.158	-0.022	-0.0546	-0.0249	-0.0633	-0.12	0.0034	-0.0687	-0.0859	-0.0221	-0.0362	-0.0204	-0.0553	0.0298
COc1nnc2ccc(N3CCC(c4ccc(OCCN5CCN(C)C(=O)[C@H]5C)cc4)CC3)nn12 [AZD5153] + CC1(C)CCC(CN2CCN(c3ccc(C(=O)NS(=O)(=O)c4ccc(NCC5CCOCC5)c([N+](=O)[O-])c4)c(Oc4cnc5[nH]ccc5c4)c3)CC2)=C(c2ccc(Cl)cc2)C1 [Venetoclax] (first compound max 1 µM, 7x7, partner max 1 µM)	0.365	-0.0057	-0.0172	-0.0551	-0.0107	-0.0179	-0.0558	-0.0418	-0.0555	0.0094	-0.0465	-0.068	-0.0216	0.0065	-0.0327	0.102
COc1nnc2ccc(N3CCC(c4ccc(OCCN5CCN(C)C(=O)[C@H]5C)cc4)CC3)nn12 [AZD5153] + CCN(CCO)CCCOc1ccc2c(Nc3cc(CC(=O)Nc4cccc(F)c4)[nH]n3)ncnc2c1 [AZD2811] (first compound max 1 µM, 7x7, partner max 1 µM)	0.379	0.0072	-0.0273	-0.0416	0.0198	-0.0231	-0.0493	-0.0911	0.0076	-0.0171	-0.0849	-0.0193	0.0036	0.0011	-0.0476	-0.0428
COc1nnc2ccc(N3CCC(c4ccc(OCCN5CCN(C)C(=O)[C@H]5C)cc4)CC3)nn12 [AZD5153] + C[C@@H]1COCCN1C2=NC(=NC(=C2)C3(CC3)[S@](=N)(=O)C)C4=C5C=CNC5=NC=C4 [AZD6738] (first compound max 1 µM, 7x7, partner max 10 µM)	0.512	0.0002	-0.0005	0.0051	0.0515	-0.0201	-0.0799	-0.0314	0.0581	-0.0701	-0.0217	0.0105	-0.0255	-0.0211	0.0339	-0.0012
COc1nnc2ccc(N3CCC(c4ccc(OCCN5CCN(C)C(=O)[C@H]5C)cc4)CC3)nn12 [AZD5153] + Cc1c2c(nn1C)CSCc1cc(n(C)n1)CSc1cc(c3ccccc3c1)OCCCc1c(C(=O)O)n(C)c3c-2c(Cl)ccc13 [AZD5991] (first compound max 1 µM, 7x7, partner max 1 µM)	0.35	-0.0124	-0.0183	-0.0078	0.0124	0.0848	-0.0536	0.0141	-0.019	-0.0151	-0.0231	-0.0782	-0.0668	-0.0051	-0.0033	-0.0042
COc1nnc2ccc(N3CCC(c4ccc(OCCN5CCN(C)C(=O)[C@H]5C)cc4)CC3)nn12 [AZD5153] + Cn1cnc2c(F)c(Nc3ccc(Br)cc3Cl)c(C(=O)NOCCO)cc21 [Selumetinib] (first compound max 1 µM, 7x7, partner max 10 µM)	0.868	0.0634	-0.0532	0.0214	0.0725	-0.0196	-0.0375	-0.0421	0.0284	-0.0665	0.0157	0.0128	0.0587	0.0094	0.053	-0.0004
NC1(C(=O)N[C@@H](CCO)c2ccc(Cl)cc2)CCN(c2ncnc3[nH]ccc23)CC1 [Capivasertib] + CC(=O)c1c(C)c2cnc(Nc3ccc(N4CCNCC4)cn3)nc2n(C2CCCC2)c1=O [Palbociclib] (first compound max 10 µM, 7x7, partner max 10 µM)	0.197	0.0187	0.0095	0.0347	-0.042	-0.0113	0.0053	-0.0379	-0.0046	-0.0055	0.029	-0.0489	-0.0779	0.0115	-0.0055	0.0689
CC1(C)CCC(CN2CCN(c3ccc(C(=O)NS(=O)(=O)c4ccc(NCC5CCOCC5)c([N+](=O)[O-])c4)c(Oc4cnc5[nH]ccc5c4)c3)CC2)=C(c2ccc(Cl)cc2)C1 [Venetoclax] + CCN(CCO)CCCOc1ccc2c(Nc3cc(CC(=O)Nc4cccc(F)c4)[nH]n3)ncnc2c1 [AZD2811] (first compound max 1 µM, 7x7, partner max 1 µM)			-0.0537	-0.0068	-0.0928	0.053	0.0894	0.0005	-0.0105	-0.045	-0.0338	0.0225	-0.0407	0.025	-0.0166	0.0653
CC1(C)CCC(CN2CCN(c3ccc(C(=O)NS(=O)(=O)c4ccc(NCC5CCOCC5)c([N+](=O)[O-])c4)c(Oc4cnc5[nH]ccc5c4)c3)CC2)=C(c2ccc(Cl)cc2)C1 [Venetoclax] + CN(C)CCCOc1ccc(-c2ccc3ncc4c(c3c2)n(C2CCOCC2)c(=O)n4C)cn1 [AZD0156] (first compound max 1 µM, 7x7, partner max 1 µM)			-0.0378	0.0087	-0.002	-0.0237	0.0387	-0.0717	-0.004	0.0128	-0.0344	-0.0418	-0.0434	0.0203	-0.0201	0.0881
CC1(C)CCC(CN2CCN(c3ccc(C(=O)NS(=O)(=O)c4ccc(NCC5CCOCC5)c([N+](=O)[O-])c4)c(Oc4cnc5[nH]ccc5c4)c3)CC2)=C(c2ccc(Cl)cc2)C1 [Venetoclax] + COc1cc(Nc2ncc3c(n2)-c2ccc(Cl)cc2C(c2c(F)cccc2OC)=NC3)ccc1C(=O)O [Alisertib] (first compound max 1 µM, 7x7, partner max 10 µM)			-0.0359	-0.0415	-0.0225	0.11	-0.0072	-0.0642	-0.0234	0.0861	-0.0542	-0.0544	0.0087	0.141	-0.0324	0.178
CC1(C)CCC(CN2CCN(c3ccc(C(=O)NS(=O)(=O)c4ccc(NCC5CCOCC5)c([N+](=O)[O-])c4)c(Oc4cnc5[nH]ccc5c4)c3)CC2)=C(c2ccc(Cl)cc2)C1 [Venetoclax] + C[C@@H]1COCCN1C2=NC(=NC(=C2)C3(CC3)[S@](=N)(=O)C)C4=C5C=CNC5=NC=C4 [AZD6738] (first compound max 1 µM, 7x7, partner max 10 µM)			-0.0586	-0.0484	-0.0127	0.0109	-0.0029	-0.034	-0.0092	0.0066	-0.0282	-0.021	-0.0253	-0.0193	-0.0314	0.154
CC1(C)CCC(CN2CCN(c3ccc(C(=O)NS(=O)(=O)c4ccc(NCC5CCOCC5)c([N+](=O)[O-])c4)c(Oc4cnc5[nH]ccc5c4)c3)CC2)=C(c2ccc(Cl)cc2)C1 [Venetoclax] + C[C@@H](Nc1cc(F)cc(F)c1)c1cc(C(=O)N(C)C)cc2c(=O)cc(N3CCOCC3)oc12 [AZD8186] (first compound max 1 µM, 7x7, partner max 3 µM)			-0.0325	0.0135	-0.0523	0.0393	0.0287	0.0015	-0.0538	0.0357	-0.0205	-0.0248	-0.0311	0.0293	-0.0661	0.149
CC1(C)CCC(CN2CCN(c3ccc(C(=O)NS(=O)(=O)c4ccc(NCC5CCOCC5)c([N+](=O)[O-])c4)c(Oc4cnc5[nH]ccc5c4)c3)CC2)=C(c2ccc(Cl)cc2)C1 [Venetoclax] + Cc1cc2ncnn2cc1Nc1ncc2c(n1)n(C1CCOCC1)c(=O)n2C [AZD7648] (first compound max 1 µM, 7x7, partner max 10 µM)			-0.0209	-0.0431	-0.0032	-0.0121	-0.0246	-0.0904	-0.0235	0.0008	-0.061	0.0161	-0.0487	0.0222	-0.0359	0.0584
CC1(C)CCC(CN2CCN(c3ccc(C(=O)NS(=O)(=O)c4ccc(NCC5CCOCC5)c([N+](=O)[O-])c4)c(Oc4cnc5[nH]ccc5c4)c3)CC2)=C(c2ccc(Cl)cc2)C1 [Venetoclax] + Cn1cnc2c(F)c(Nc3ccc(Br)cc3Cl)c(C(=O)NOCCO)cc21 [Selumetinib] (first compound max 1 µM, 7x7, partner max 3 µM)			0.0238	-0.0396	-0.0033	0.0341	0.0019	-0.0415	-0.0487	-0.0273	-0.0521	-0.0275	-0.0351	-0.0737	-0.0321	0.036
